Data set [1] in a line: refractive index (Na D-line) (dimensionless). To be noted: 298.15 K; 101.33 kPa; Liquid; Standard Abbe refractometry.
The conditions of data set [2]: Liquid; for mass density: 298.15 K, 101.33 kPa; for Normal boiling temperature: Closed cell (Static) method.

± gives the expanded uncertainty stated by the source.

Drawing on the NIST ThermoML archive (doi:10.1016/j.jct.2008.01.002), this text covers refractive index, mass density and Normal boiling temperature for five compounds.

One may read the refractive index as a measure of how strongly the sample bends light. Broadly, the mass density is the mass of a sample divided by its volume. On to `CCCOCCC` [dipropyl ether], for which the refractive index in data set [1] amounted to 1.3784 ± 0.0005. Besides, in data set [2], the mass density is 741.81 ± 0.56 kg/m3 and the Normal boiling temperature stood at 90.01 ± 0.2 °C.

Regarding `O` [water], the refractive index in data set [1] was 1.3332 ± 0.0005. In addition, the Normal boiling temperature in data set [2] was found to be 100.00 ± 0.2 °C.

On to `CCCO` [propan-1-ol], for which the refractive index in data set [1] was determined as 1.3836 ± 0.0005. For the same compound, in data set [2], the mass density stood at 799.62 ± 0.79 kg/m3 and the Normal boiling temperature was 96.60 ± 0.2 °C.

With `CC(C)O` [propan-2-ol], the refractive index in data set [1] worked out at 1.3754 ± 0.0005. Also, the mass density in data set [2] (Vibrating tube method) worked out at 782.69 ± 0.12 kg/m3. Besides, in data set [2], the Normal boiling temperature came to 82.10 ± 0.2 °C.

For `CC(C)OC(C)C` [diisopropyl ether], the refractive index in data set [1] amounted to 1.3652 ± 0.0005. Also, in data set [2], the mass density worked out at 718.32 ± 0.96 kg/m3 and the Normal boiling temperature was 68.2 ± 0.2 °C.
